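Five concentrations, 48 hours, 96-well plates. The concentration for full growth arrest is given as TGI.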
Legend:
Test in all cases: DTP human tumour cell line panel, 48 h
[1] = test system: DMS 273 small cell lung
[2] = test system: HOP-92 NSCLC
[3] = test system: COLO 205 colon
[4] = test system: SK-OV-3 ovarian
[5] = test system: K-562 leukemia
[6] = test system: HCT-15 colon
[7] = test system: DLD-1 colon
[8] = test system: RXF 393 renal
[9] = test system: HOP-62 NSCLC
[10] = test system: DMS 114 small cell lung
[11] = test system: ACHN renal
[12] = test system: SF-268 CNS
[13] = test system: M14 melanoma
[14] = test system: SK-MEL-28 melanoma
[15] = test system: KM20L2 colon
[16] = test system: RXF-631 renal
[17] = test system: CCRF-CEM leukemia
[18] = test system: TK-10 renal
[19] = test system: SW-620 colon
[20] = test system: RPMI-8226 leukemia
[21] = test system: SN12C renal
[22] = test system: A549 NSCLC
[23] = test system: NCI-H522 lung
[24] = test system: EKVX NSCLC
[25] = test system: LOX IMVI melanoma
[26] = test system: LXFL 529 NSCLC
[27] = test system: SK-MEL-5 melanoma
[28] = test system: A498 renal
[29] = test system: XF 498 CNS
[30] = test system: NCI-H23 lung
[31] = test system: HOP-18 NSCLC
[32] = test system: U251 CNS
[33] = test system: HCT-116 colon
[34] = test system: SF-539 CNS
[35] = test system: MOLT-4 leukemia
[36] = test system: NCI-H460 lung
[37] = test system: OVCAR-8 ovarian
[38] = test system: SF-295 CNS
[39] = test system: UO-31 renal
[40] = test system: HL-60(TB) leukemia
[41] = test system: HT29 colon
[42] = test system: M19-MEL melanoma
[43] = test system: NCI-H226 lung
[44] = test system: 786-0 renal
[45] = test system: IGROV1 ovarian
[46] = test system: KM12 colon
[47] = test system: HCC-2998 colon
[48] = test system: CAKI-1 renal
[49] = test system: SNB-78 CNS
[50] = test system: UACC-257 melanoma
[51] = test system: SNB-75 CNS
[52] = test system: OVCAR-3 ovarian
[53] = test system: UACC-62 melanoma

Measured: TGI

Nc1ccn(C2OC(C(O)CO)C(O)C2O)c(=O)n1 (stereo not drawn)
> 100 µM: [1] | [2] | [3] | [4] | [5] | [6] | [7] | [8] | [9] | [10] | [11] | [12] | [13] | [14] | [15] | [16] | [17] | [18] | [19] | [20] | [21] | [22] | [23] | [24] | [25] | [26] | [27] | [28] | [29] | [30] | [31] | [32] | [33] | [34] | [35] | [36] | [37] | [38] | [39] | [40]

COC12OCCN(C)C1=CC(=O)C1=NNC(C)C12 (stereo not drawn)
> 100 µM: [1] | [41] | [2] | [3] | [4] | [42] | [5] | [6] | [7] | [8] | [10] | [43] | [13] | [14] | [16] | [17] | [44] | [18] | [19] | [20] | [21] | [45] | [22] | [23] | [24] | [25] | [26] | [27] | [46] | [28] | [47] | [30] | [31] | [32] | [48] | [49] | [50] | [33] | [34] | [35] | [36] | [37] | [51] | [52] | [53] | [38] | [39] | [40]
